One compound from patent publication US12269826B1, “7H-pyrido[4′,3′:4,5]pyrrolo[2,3-c][1,7]naphthyridine compounds as CK2 inhibitors” (KING FAISAL UNIVERSITY, priority 2023, dated 2025) can be followed below.

The subject of experiment [1] is MIAPaCa-2 (pancreas). In words: In vitro cytotoxic activity (MTT) assay, MIAPaCa-2. As to conditions: Homo sapiens, MIA PaCa-2; cells exposed for 96 hours; 50% inhibition of cell proliferation; read-out: Cytotoxicity activity IC50, MIAPaCa-2 (pancreas). It counts as cell-based. As to the method: (§1) Compounds 1-16 were screened for their in vitro cytotoxic activity utilizing a 3-(4,5-dimethyl-thiazol-2-yl)-2,5-diphenyltetrazolium bromide (MTT) assay against selected cancer human cell lines consisting of PC3 (prostate), HCT116 (colon), A375 (melanoma), H1299 (lung), MIAPaCa-2 (pancreas), HL60 (leukemia), MCF7 (breast), MDA-MB-231 (breast) (T. Mosmann, J. Immunol. Meth., 1983, 65, 55-63). The cells were cultured at 37° C. in RMPI1640 medium supplemented with 10% fetal bovine serum, 50 IU/mL penicillin, and 50 μg/mL streptomycin in a 5% CO2 incubator. All cells were sub-cultured 3 times/week by trypsinisation. Viable cells were seeded and allowed to adhere for 12 h before a test drug was added in 96-well plates at an initial density of 1.0×10^5 cells/mL. Tumor cell lines were separately exposed to various concentrations of the tested compounds followed by incubation at a temperature of 37° C. during 96 hours inside a medium of fresh RMPI 1640. Cells were subsequently incubated at 37° C. using MTT at 0.5 mg/mL during 4 hours. After removal of supernatant, formazan crystals were dissolved in isopropanol and the optical density was measured at 570 nm. CX-4945 was used as a positive control.

Experiment [2] concerns the target T1, recombinant human CK2 (RRββ-holoenzyme) (Homo sapiens, UniProt P68400).
T1 construct: purchased Millipore
Description: CK2 Kinase Assay (33P-ATP, filter plate). It counts as biochemical. As to conditions: final ATP concentration 15 μM; 10 min at 30° C.; read-out: protein kinase CK2 IC50. Here is the method: CK2 Kinase Assay was conducted using the protocol as described in Pierre F. et al; J. Med. Chem. 2011, 54, 635-654. The tested compounds in aqueous solution were added at a volume of 10 μL to a reaction mixture comprising 10 μL of assay dilution buffer (ADB; 20 mM MOPS, pH 7.2, 25 mM β-glycerol phosphate, 5 mM EGTA, 1 mM sodium orthovanadate, and 1 mM dithiothreitol), 10 μL of substrate peptide (RRRDDDSDDD, dissolved in ADB at a concentration of 1 mM), 10 μL of recombinant human CK2 (RRββ-holoenzyme, 25 ng dissolved in ADB; Millipore). Reactions were initiated by the addition of 10 μL of ATP solution (90% 75 mMMgCl2, 75 µM ATP (final ATP concentration: 15 μM) dissolved in ADB; 10% [γ-33P] ATP (stock 1 mCi/100 μL; 3000 Ci/mmol (Perkin-Elmer) and maintained for 10 min at 30° C. The reactions were quenched with 100 μL of 0.75% phosphoric acid and then transferred to and filtered through a phosphor cellulose filter plate (Millipore). After washing each well five times with 0.75% phosphoric acid, the plate was dried under vacuum for 5 min and, following the addition of 15 μL of scintillation fluid to each well, the residual radioactivity was measured using a Wallac luminescence counter. The IC50 values were derived from eight concentrations of test inhibitors.

The subject of experiment [3] is HL60 (leukemia). In words: In vitro cytotoxic activity (MTT) assay, HL60. As to conditions: Homo sapiens, HL-60; cells exposed for 96 hours; 50% inhibition of cell proliferation; read-out: Cytotoxicity activity IC50, HL60 (leukemia). It counts as cell-based. As to the method:
as §1

Experiment [4] relates to H1299 (lung). In words: In vitro cytotoxic activity (MTT) assay, H1299. Particulars: Homo sapiens, NCI-H1299; cells exposed for 96 hours; 50% inhibition of cell proliferation; read-out: Cytotoxicity activity IC50, H1299 (lung). It counts as cell-based. As to the method:
as §1

Experiment [5] concerns HCT116 (colon). In words: In vitro cytotoxic activity (MTT) assay, HCT116. As to conditions: Homo sapiens, HCT-116; cells exposed for 96 hours; 50% inhibition of cell proliferation; read-out: Cytotoxicity activity IC50, HCT116 (colon). It is filed as cell-based. As to the method: as §1
Experiment [6] deals with PC3 (prostate). In words: In vitro cytotoxic activity (MTT) assay, PC3. It is filed as cell-based. Particulars: Homo sapiens; cells exposed for 96 hours; 50% inhibition of cell proliferation; read-out: Cytotoxicity activity IC50, PC3 (prostate). Here is the method:
as §1

Experiment [7] concerns MCF7 (breast). In words: In vitro cytotoxic activity (MTT) assay, MCF7. It is filed as cell-based. As to conditions: Homo sapiens, cells exposed for 96 hours, 50% inhibition of cell proliferation, read-out: Cytotoxicity activity IC50, MCF7 (breast). As to the method:
as §1

In experiment [8] the test system is A375 (melanoma). Description: In vitro cytotoxic activity (MTT) assay, A375. As to conditions: Homo sapiens, A-375; cells exposed for 96 hours; 50% inhibition of cell proliferation; read-out: Cytotoxicity activity IC50, A375 (melanoma). It counts as cell-based. Here is the method:
as §1

Experiment [9] has as its system MDA-MB-231 (breast). In words: In vitro cytotoxic activity (MTT) assay, MDA-MB-231. It counts as cell-based. As to conditions: Homo sapiens, cells exposed for 96 hours, 50% inhibition of cell proliferation, read-out: Cytotoxicity activity IC50, MDA-MB-231 (breast). Here is the method:
as §1

Structures are written as SMILES.

T1 sequence (P68400 whole entry): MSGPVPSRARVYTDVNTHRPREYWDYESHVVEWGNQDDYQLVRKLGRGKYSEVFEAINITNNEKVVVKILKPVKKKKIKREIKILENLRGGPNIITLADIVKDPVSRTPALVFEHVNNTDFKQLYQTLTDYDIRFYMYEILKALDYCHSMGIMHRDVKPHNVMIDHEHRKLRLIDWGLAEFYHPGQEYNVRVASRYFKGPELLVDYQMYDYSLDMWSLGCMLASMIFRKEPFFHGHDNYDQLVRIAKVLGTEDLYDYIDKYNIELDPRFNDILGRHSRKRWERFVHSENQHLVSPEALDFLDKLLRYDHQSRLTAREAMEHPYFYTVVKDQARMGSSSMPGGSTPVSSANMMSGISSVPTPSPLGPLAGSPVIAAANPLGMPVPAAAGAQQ
T1 sequence (P67870 whole entry partner): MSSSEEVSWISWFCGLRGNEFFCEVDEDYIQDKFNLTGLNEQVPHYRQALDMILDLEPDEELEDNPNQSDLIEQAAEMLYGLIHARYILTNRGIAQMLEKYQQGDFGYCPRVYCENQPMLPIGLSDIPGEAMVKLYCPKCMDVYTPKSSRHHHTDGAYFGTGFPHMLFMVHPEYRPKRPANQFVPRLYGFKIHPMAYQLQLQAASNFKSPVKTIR

Take `Clc1cccc(Nc2nc3cnccc3c3c2[nH]c2cnccc23)c1` [Compound 1, N-(3-chlorophenyl)-7H-pyrido[4′,3′:4,5]pyrrolo[2,3-c][1,7]naphthyridin-6-amine]: the concentration for half-maximal inhibition (IC50) is 2800 nM in [1]; 295 nM in experiment [2]; 3600 nM in experiment [3]; 1600 nM in experiment [4]; 1100 nM in [5]; 900 nM in [6]. Further, the half-maximal inhibitory concentration (IC50) in [7] was determined as 4900 nM; in [8], 4200 nM; in experiment [9], 4100 nM.

As a reminder, the IC50 is the point on the concentration scale where inhibition reaches its midpoint.
